How the values were obtained:
human GLP-1R receptor = target: T1, human GLP-1R receptor (Homo sapiens, UniProt P43220, L260F); experiment: CHOK1 GLP-1R cAMP Assay (HTRF); type: cell-based; settings: CHO-K1 cells stably expressing human GLP-1R (Leu260Phe variant), 20 min at rt
T1 construct: expressed in transfected cells; host or cells: CHO-K1 (ATCC CCL-61)
Procedure: A cell line stably expressing the human GLP-1R receptor (NM_002062.5, including the naturally-occurring variant Leu260Phe) in a CHO-K1 (ATCC® CCL-61™) was used for assay.
GLP-1 receptor mediated agonist activity was determined in a cell-based assay measuring cyclic adenosine monophosphate (cAMP) levels in cells using Homogeneous Time-Resolved Fluorescence (HTRF) cAMP detection kit (CisBio catalog #62AM4PEC, cAMP Gs Dynamic range kit). The cAMP detection method is based on a competitive immunoassay, in which cAMP produced by the cells and cAMP labeled with the dye d2 compete for binding to a Europium-Cryptate-labeled anti-cAMP antibody. The specific HTRF signal is inversely proportional to the concentration of cAMP.
Compounds were added to individual well in 384 well-assay plates (Greiner #784076) using an Echo (LabCyte) dispenser from 10 mM stocks. Varying concentration of compounds were added to wells, and DMSO was used to normalize each well to a volume of 100 nL. A dose response curve of GLP-1(7-36)NH2 (Bachem H-6795) was included in each run. 5 μL of cAMP concentration response standards are applied in specified wells in the assay plates. Cryo-preserved cells are thawed and resuspended in assay buffer pre-heated to 37° C. (20 mM 2-[4-(2-hydroxyethyl)piperazin-1-yl]ethanesulfonic acid (HEPES) pH 7.4, 1× Hank's Balanced Salt Solution (HBSS, Life Technologies #14065) supplemented with 0.1% (w/v) bovine serum albumin (Sigma, A-7030)). Cells were centrifuged at 250*g for 5 min at rt, and resuspended in room tempered assay buffer to a final density of 0.16*10^6 cell/mL, to deliver 800 cells/well. 5 μL of assay buffer with 1 mM 3-isobutyl-1-methylxanthin (IBMX; Sigma cat I-7018) was dispensed per well in assay plates using a multidrop combi (Thermo Scientific) subsequently 5 μL of cell suspension was distributed to relevant wells in the assay using a multidrop dispenser. Assay plates were incubated 20 min at rt.
Detection reagents, Europium-Cryptate-labeled anti-cAMP antibody and cAMP labeled with the dye d2, are diluted in lysis buffer, provided by the manufacturer. 5 μL of each detection reagent is supplemented to each assay well using a multidrop dispenser. Assay plates are incubated in the dark for at least one h. The HTRF signal is measured using the HTRF module (excitation: 337 nm, emission A: 665 nm and emission B: 620 nm) in Pherastar FSX (BMG Labtech).
Raw data were converted to pM cAMP using the cAMP standard curve included in each run. Converted data were further analyzed in Genedata Screener (Genedata) and EC50 determinations were made from agonist dose-response curves analyzed with a curve fitting is program using a 4-parameter logistic dose response equation (Equation y=A+((B-A)/1+((C/x)^D))) where A is no stimulation, B is full stimulation, C is the EC50 and D is the Hill slope). The percent effect was determined relative to a saturating concentration of a full GLP-1R agonist (GLP-1(7-36)NH2 has 100% effect in this assay setup).

[1] = target: T2, GLP-1R in a pancreatic insulinoma cell line (EndoC-PH1) (Homo sapiens, UniProt P43220); experiment: EndoC cAMP Accumulation Assay (HTRF); type: cell-based; settings: EndoC-PH1 human pancreatic beta cell line, endogenous GLP-1R, 30 min at rt
T2 construct: host or cells: EndoC-βH1 human pancreatic beta cell line
Excerpt: EndoC cAMP Accumulation Assay
A HTRF cAMP assay (cAMP Gs dynamic kit; CisoBio Cat #62AM4PEJ) was used to identify agonists of GLP-1R in a pancreatic insulinoma cell line (EndoC-PH1). […] EndoC-PHlcells have detectable GLP-1R messenger ribonucleic acid (mRNA) as detected by quantitative polymerase chain reaction (qPCR). […] The EndoC-PH1 cell line is a valid model of human beta cells and applicable for screenings to identify novel drug target candidates (Mol. Metab., 2018, 8, 144-157). CisBio HTRF cAMP kits are based on a competitive immunoassay using cryptate-labelled anti-cAMP antibody and d2-labeled cAMP. The detection kit is intended for the direct is quantitative determination of cAMP. The specific signal (i.e. energy transfer) is inversely proportional to the concentration of cAMP in the standard or sample. Test compounds (10 mM in DMSO) were diluted into assay buffer (HBSS (Sigma #H8264) supplemented with 25 mM HEPES (Gibco #15630, pH 7.4), 0.1% BSA (Sigma #A3059) and 0.5 mM IBMX (Sigma #I7018) included fresh on the day of the assay) into 96 well U-bottom plates (Greiner #650201). Diluted compounds were transferred to ECHO source polypropelene plates (Labcyte #P-05525) and dose response curves were dispensed acoustically using ECHO 550 into black shallow-well u-bottom 384-well HTRF Assay Plates (Corning 4514). Cryovials of EndoC-H1 (supplied at 1×10e^7 cells/vial) were used directly for screening. The cryovials and were removed from N2(1) and thawed rapidly in a 37° C. water bath. The cells were resuspended in assay buffer and centrifuged at 300 g for 5 min. Cells were resuspended in assay buffer at the appropriate concentration, typically at 12e5 cells per mL (3000 cells per well, dependent on cell batch) and 2.5 μL diluted cells were added to all wells of destination plate by Multidrop combi reagent dispenser (Thermofisher). The plates were incubated at rt for 30 min. The assay was stopped by adding 2.5 μL anti-cAMP cryptate solution to all wells and 2.5 μL cAMP-d2 solution (both diluted 1:20 in lysis buffer) to columns 1-22 by Combi drop. A volume of 2.5 μL cAMP-d2 solution was added to wells E23 to P24 and 2.5 μL lysis buffer added to wells A23 to D24 by multichannel pipette. The plates were incubated at rt for 1 h and read on an Envision plate reader using excitation wavelength of 320 nm and emission of […] and 660 nm.
Raw data from Envision is converted to % DeltaF according to the manufacturer's instructions. Dose response curves are analysed via 4-Parameter Logistical Analysis and assay plate Z’ values obtained. Samples are graphed as percentage (%) activation plots compared to […] with assay window defined by negative control as basal cell is cAMP levels and positive control are defined by maximum GIP (82.5 nM) signal. GLP-1 (7-36 amide, Bachem H-6795) dose response curve was included on all plates.

T1 sequence (P43220 24-463 L260F): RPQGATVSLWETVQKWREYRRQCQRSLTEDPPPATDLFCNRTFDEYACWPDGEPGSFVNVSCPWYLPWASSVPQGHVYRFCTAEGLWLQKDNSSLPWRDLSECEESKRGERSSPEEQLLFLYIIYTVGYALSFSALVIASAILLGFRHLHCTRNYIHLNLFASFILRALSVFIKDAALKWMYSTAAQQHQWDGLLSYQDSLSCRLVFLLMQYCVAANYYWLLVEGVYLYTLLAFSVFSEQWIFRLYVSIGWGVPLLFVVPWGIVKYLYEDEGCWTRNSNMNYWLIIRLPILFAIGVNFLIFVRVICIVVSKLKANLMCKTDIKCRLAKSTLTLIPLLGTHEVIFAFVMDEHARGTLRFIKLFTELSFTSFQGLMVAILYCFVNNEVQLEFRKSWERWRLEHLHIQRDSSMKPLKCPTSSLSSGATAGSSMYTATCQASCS
T2 sequence (P43220 24-463): as the sequence (P43220 24-463 L260F) above, with F237L counted along it

| SMILES | EC50 (human GLP-1R receptor) [nM] | EC50 [1] [nM] |
| --- | --- | --- |
| C[C@]1(c2ccc(Cl)cn2)Oc2cccc(N3CCN(Cc4nc5c(Cl)cc(C(=O)O)cc5n4C[C@@H]4CCO4)[C@H]4CC[C@H]43)c2O1 (single isomer, unassigned) [Example 20d, 4-Chloro-2-(((1R*,6S*)-5-((R*)-2-(5-chloropyridin-2-yl)-2-methylbenzo[d][1,3]dioxol-4-yl)-2,5-diazabicyclo[4.2.0]octan-2-yl)methyl)-1-(((S)-oxetan-2-yl)methyl)-1H-benzo[d]imidazole-6-carboxylic acid] | 2.5 | 2.8 |
| C[C@]1(c2ccc(Cl)cn2)Oc2cccc(N3CCN(Cc4nc5c(Cl)cc(C(=O)O)cc5n4C[C@@H]4CCO4)[C@H]4CC[C@H]43)c2O1 (relative stereo) [Example 20a, 4-Chloro-2-(((1R*,6S*)-5-((R*)-2-(5-chloropyridin-2-yl)-2-methylbenzo[d1[1,3]dioxol-4-yl)-2,5-diazabicyclo[4.2.0]]octan-2-yl)methyl)-1-(((S)-oxetan-2-yl)methyl)-1H-benzo[d]imidazole-6-carboxylic acid] | 42 | – |
| C[C@]1(c2ccc(Cl)cn2)Oc2cccc(N3CCN(Cc4nc5c(F)cc(C(=O)O)cc5n4CC4(C#N)CC4)[C@H]4CC[C@@H]43)c2O1 (single isomer, unassigned) [Example 24b] | 2.1 | 8 |
| COc1cc(C(=O)O)cc2c1nc(CN1CCN(c3cccc4c3O[C@@](C)(c3ccc(Cl)cn3)O4)[C@H]3CC[C@@H]31)n2CC1(C#N)CC1 (single isomer, unassigned) [Example 25a] | 130 | 260 |
| C[C@]1(c2ccc(Cl)cc2F)Oc2cccc(N3CCN(Cc4nc5ccc(C(=O)O)cc5n4C[C@@H]4CCO4)[C@H]4CC[C@H]43)c2O1 (single isomer, unassigned) [Example 18a, 2-(((1R*,6S*)-5-((R*)-2-(4-Chloro-2-fluorophenyl)-2-methylbenzo[d][1,3]dioxol-4-yl)-2,5-diazabicyclo[4.2.0]octan-2-yl)methyl)-1-(((S)-oxetan-2-yl)methyl)-1H-benzo[d]imidazole-6-carboxylic acid] | 0.98 | 3.3 |
| C[C@]1(c2ccc(Cl)cc2F)Oc2cccc(N3CCN(Cc4nc5c(F)cc(C(=O)O)cc5n4C[C@@H]4CCO4)[C@H]4CC[C@H]43)c2O1 (relative stereo) [Example 9d, 2-((1R*,6S*)-5-(R*)-2-(4-Chloro-2-fluorophenyl)-2-methylbenzo[d][1,3]dioxol-4-yl)-2,5-diazabicyclo[4.2.0]octan-2-yl)methyl)-4-fluoro-1-(((S)-oxetan-2-yl)methyl)-1H-benzo[d]imidazole-6-carboxylic acid] | 2.3 | 4.3 |
| C[C@]1(c2ccc(Cl)cn2)Oc2cccc(N3CCN(Cc4nc5c(F)cc(C(=O)O)cc5n4C[C@@H]4CCO4)[C@H]4CC[C@H]43)c2O1 (single isomer, unassigned) [Example 1a, 2-((1R*,6S*)-5-(R*)-2-(5-Chloropyridin-2-yl)-2-methylbenzo[d][1,3]dioxol-4-yl)-2,5-diazabicyclo[4.2.0]octan-2-yl)methyl)-4-fluoro-1-(((S)-oxetan-2-yl)methyl)-1H-benzo[d]imidazole-6-carboxylic acid] | 66 | 280 |
| C[C@]1(c2ccc(Cl)cn2)Oc2cccc(N3CCN(Cc4nc5c(Cl)cc(C(=O)O)cc5n4CC4(CC#N)CC4)[C@H]4CC[C@@H]43)c2O1 (single isomer, unassigned) [Example 26d] | 10 | 7 |
| CCn1ccnc1Cn1c(CN2CCN(c3cccc4c3O[C@@](C)(c3ccc(Cl)cn3)O4)[C@H]3CC[C@@H]32)nc2c(Cl)cc(C(=O)O)cc21 (single isomer, unassigned) [Example 10c] | 240 | 1000 |
| C[C@]1(c2ccc(Cl)cn2)Oc2cccc(N3CCN(Cc4nc5c(Cl)cc(C(=O)O)cc5n4CC4(CC#N)CC4)[C@H]4CC[C@@H]43)c2O1 (single isomer, unassigned) [Example 26a] | 350 | 450 |
| CC1(c2ccc(Cl)cn2)Oc2cccc(N3CCN(Cc4nc5c(F)cc(C(=O)O)cc5n4CCOC4CC4(F)F)[C@H]4CC[C@@H]43)c2O1 (mixture of isomers) [Example 14, rac-2-(((1R,6R)-5-(2-(5-Chloropyridin-2-yl)-2-methylbenzo[d][1,3]dioxol-4-yl)-2,5-diazabicyclo[4.2.0]octan-2-yl)methyl)-1-(2-(2,2-difluorocyclopropoxy)ethyl)-4-fluoro-1H-benzo[d]imidazole-6-carboxylic acid] | 45 | 38 |
| COc1cc(C(=O)O)cc2c1nc(CN1CCN(c3cccc4c3OC(C)(c3ccc(Cl)cn3)O4)[C@H]3CC[C@@H]31)n2CCOC1CC1(F)F (mixture of isomers) [Example 13, rac-2-(((1R,6R)-5-(2-(5-Chloropyridin-2-yl)-2-methylbenzo[d][1,3]dioxol-4-yl)-2,5-diazabicyclo[4.2.0]octan-2-yl)methyl)-1-(2-(2,2-difluorocyclopropoxy)ethyl)-4-methoxy-1H-benzo[d]imidazole-6-carboxylic acid] | 5.2 | – |
| C[C@]1(c2ccc(Cl)cn2)Oc2cccc(N3CCN(Cc4nc5c(Cl)cc(C(=O)O)cc5n4C[C@@H]4CCO4)[C@H]4CC[C@H]43)c2O1 (single isomer, unassigned) [Example 20b, 4-Chloro-2-(((1R*,6S*)-5-((R*)-2-(5-chloropyridin-2-yl)-2-methylbenzo[d][1,3]dioxol-4-yl)-2,5-diazabicyclo[4.2.0]octan-2-yl)methyl)-1-(((S)-oxetan-2-yl)methyl)-1H-benzo[d]imidazole-6-carboxylic acid] | 140 | – |

Source: US20240417393A1, “CERTAIN 2,5-DIAZABICYCLO[4.2.0]OCTANES AS GLP-1 RECEPTOR MODULATORS” (ASTRAZENECA AB, priority 2021, published 2024)
